The results in this text go back to patent US12108756B2, “Photodynamic method of inhibiting growth of a microbial plant pathogen” (priority 2019, dated 2024).

For one assay, the system named is E. coli. Briefly: E. coli kill with photosensitizers with and without copper under broad-spectrum Reptile Light. It is filed as cell-based, Escherichia coli. The following applies: for effectiveness as photosensitizer: as shown in Example 2, under the test conditions; for log reduction: Reptile Light 8,520 Lux (26 W/m2). As for the experimental part: In this example we compare different photosensitizers (50 μM in water) in combination with and without copper sulfate. An agricultural adjuvant sticker spreader, Silwet® L-77 was also included at a 0.0125% concentration. The conditions experimental were the same as Example 1: E. coli as the test organism, using copper sulfate at 10 ppm, and a light exposure time of 30 minutes. However, in this test series we used a light source that reproduced the spectrum of sunlight, including UV. It is used to in terrariums for housing reptiles, some of which require a UV component in their light. It is referred to here as the Reptile Light (Zoo Med 2019).
In this example we also used the Reptile Light. In these tests the light intensity was 8,520 Lux, or 26 W/m2 (for comparison, this could be full daylight on a cloudy day, or a common light level in a greenhouse). […] Silwet (see Helena 2019) is an agricultural nonionic organosilicone surfactant adjuvant wetting and spreading agent commonly used with pesticides, also commonly known as a sticker spreader).
In this example we tested a commercial algicide product, Cutrine®, which contains copper ethanolamine (from the product label: Copper Ethanolamine Complex, Mixed (Mono CAS #14215-52-2 and Tri CAS #82027-59-6) 27.9%; OTHER INGREDIENTS 72.1% TOTAL 100.0% Metallic copper equivalent, 9%; Contains 0.909 lbs. of elemental copper per gallon) (EPA Reg. No. 8959-10). Copper ethanolamine is effective in keeping the copper salt in solution at neutral pH. The tests were done as above, under the reptile light for 30 minutes.
The above tests using CuSO4 at 10 ppm is equivalent to 3.98 ppm copper. We initially tested Cutrine® at a low and a high concentration, where the low concentration is adjusted to have approximately 3.98 ppm copper as before, and the high concentration is 39.8 ppm copper (same copper concentration as 100 ppm CuSO4). We tested them with and without 18 ppm riboflavin. Again, tests were run in triplicate.

Assay [1] relates to Escherichia coli (E. coli) bacteria (ATCC 25922). The assay is described as follows: Photodynamic treatment of E. coli under blue LED light; colonies plated and reduction vs untreated control. The class given is cell-based. The following applies: for % reduction: converted from log kill. On the procedure: Tests were carried out with Escherichia coli (E. coli) bacteria (ATCC 25922) in which the organisms were exposed to varying test conditions. The light source for photoactivation was a blue LED light (HIGROW 2019) that was placed 7 cm from the container containing the E. coli. The photoactivator was riboflavin (Aldrich R7649, lot VVXBB4048V, purity 98.6%) at a concentration of 18 ppm. Copper sulfate was used at a concentration of 10 ppm (aqueous solution). The tests included a wetting agent Silwet® L-77 at a concentration of 0.0125%. Silwet® L-77 is a product of Helena Agri-Enterprises, LLC of Collierville, TN, and is a nonionic organosilicone surfactant co-polymer that has enhanced wetting and spreading characteristics when used in aqueous sprays. Silwet® L-77 has a CAS Registry Number of 27306-78-1. Each test was carried out for the prescribed time, which varied from 5 minutes to 30 minutes. At the end of the exposure time the bacteria were diluted and plated so that the colonies could be enumerated and the corresponding reduction determined by comparison with the untreated control.
We also carried out tests to evaluate the effect of light intensity. These tests used 10 ppm copper sulfate and 18 ppm riboflavin (aqueous solution) in a 15-minute exposure under the blue light, using neutral density filters to decrease the light intensity. The full light intensity at the 450 nm to 460 nm range was 353 W/m^2.

Assay [2] relates to Xanthomonas hortorum pv. pelargonii. Briefly: Reduction of Xanthomonas hortorum pv. pelargonii leaf spots on geranium plants in greenhouse. Conditions: single spray 24 hours before inoculation, leaf spots counted two weeks after inoculation. It is filed as in vivo.
Where [3] appears, read: photosensitizer alone, 50 μM in water, Reptile Light, 30 minutes.
The mark [4] stands for this setting: photosensitizer alone, 50 μM in water, Reptile Light, 30 minutes, median (EY, RMP: average).
Where [5] appears, read: 10 ppm alone, blue light, 30 minutes.
Where [6] appears, read: 10 ppm + Silwet (0.0125%), 30 minutes.
[7] abbreviates: 18 ppm alone, blue light, 30 minutes.

Bounds are passed on as bounds.

With `O=C1OC2(c3ccccc31)c1cc(I)c(O)c(I)c1Oc1c2cc(I)c(O)c1I` [ER, erythrosine], the effectiveness as photosensitizer entry in the assay on E. coli is “effective”. In addition, the “% kill” value with E. coli (setting [3]) is listed as 25.88%. Moreover, the Log kill in the assay with E. coli (setting [4]) was 0.13 Log.
For the compound `O=C1OC2(c3cc(I)c(O)c(I)c3Oc3c2cc(I)c(O)c3I)c2c(Cl)c(Cl)c(Cl)c(Cl)c21` [RB, Rose Bengal], the effectiveness as photosensitizer entry in the assay on E. coli is recorded as “effective”. For the same compound, the “% kill” value in the assay with E. coli (setting [3]) is 30.81%. For the same compound, the Log kill with E. coli (setting [4]) is on record as 0.16 Log.
Turning to `O=S(=O)([O-])[O-].[Cu+2]` [copper sulfate], the log kill in assay [1] (setting [5]) is given as 0.954 log; in assay [1] (10 ppm, in the dark, 30 minutes), 0.226 log. The “% reduction” value in assay [1] (setting [5]) is 88.88%. For the same compound, the log reduction came to 0.13 log in the assay with E. coli (setting [6]) and 0.13 log in the assay on E. coli (40 ppm, 30 minutes). In the assay with E. coli (10 ppm alone, reptile lamp, 30 minutes), the “% kill” value is recorded as 26.04%. Moreover, the Log kill in the assay on E. coli (10 ppm alone, reptile lamp, 30 minutes, median value) is 0.131 Log.
Take `Cc1cc2nc3c(=O)[nH]c(=O)nc-3n(C[C@H](O)[C@H](O)[C@H](O)CO)c2cc1C` [riboflavin]: the log kill is on record as 0.83 log in assay [1] (setting [7]); “did not produce any measurable kill” in assay [1] (18 ppm, in the dark); less than 1 log in the assay on E. coli (riboflavin alone, reptile light, 30 minutes, from previous test data). In addition, the “% reduction” value in assay [1] (setting [7]) was found to be 85.208%. Further, the log reduction in the assay on E. coli (setting [6]) is recorded as 0.15 log; in the assay with E. coli (50 ppm, 1 hour), 1.6 log. Also, the Log kill is recorded as 0.115 Log in the assay on E. coli (18 ppm alone, reptile lamp, 30 minutes) and 0.115 Log with E. coli (setting [4]). In the assay on E. coli, the effectiveness as photosensitizer entry was “most effective”. Also, the “% kill” value in the assay with E. coli (setting [3]) was 23.26%. Besides, the “effectiveness against leaf spots” value in assay [2] is “only partially effective”.
As for Eosin Y [EY], the effectiveness as photosensitizer result with E. coli is recorded as “effective”. For the same compound, the “% kill” value with E. coli (setting [3]) turned out to be 6.46%. In the assay with E. coli (setting [4]), the Log kill is listed as 0.87 Log.
As to riboflavin monophosphate [RMP], in the assay on E. coli (setting [3]), the “% kill” value amounted to 3.17%. Also, the Log kill with E. coli (setting [4]) was 0.042 Log.
